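These data come from cells grown in 96-well plates and exposed to compound for 48 hours at five concentrations. Here, GI50 denotes the concentration required for 50% inhibition of growth. TGI: concentration producing complete growth inhibition.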
Columns and labels:
Assay in all cases: NCI anticancer screen, dose series, 48 h
HCT-15 colon = system: HCT-15 colon
NCI-H460 lung = system: NCI-H460 lung
K-562 leukemia = system: K-562 leukemia
NCI-H23 lung = system: NCI-H23 lung
RPMI-8226 leukemia = system: RPMI-8226 leukemia
SK-MEL-28 melanoma = system: SK-MEL-28 melanoma
T-47D breast = system: T-47D breast
MDA-MB-231 breast = system: MDA-MB-231 breast
NCI-H226 lung = system: NCI-H226 lung
SR leukemia = system: SR leukemia

SMILES | TGI (HCT-15 colon) [µM] | TGI (NCI-H460 lung) [µM] | TGI (K-562 leukemia) [µM] | TGI (NCI-H23 lung) [µM] | TGI (RPMI-8226 leukemia) [µM] | TGI (SK-MEL-28 melanoma) [µM] | GI50 (HCT-15 colon) [µM] | GI50 (NCI-H460 lung) [µM] | GI50 (K-562 leukemia) [µM] | GI50 (T-47D breast) [µM] | TGI (T-47D breast) [µM] | GI50 (MDA-MB-231 breast) [µM] | TGI (MDA-MB-231 breast) [µM] | GI50 (NCI-H226 lung) [µM] | TGI (NCI-H226 lung) [µM] | GI50 (NCI-H23 lung) [µM] | GI50 (RPMI-8226 leukemia) [µM] | GI50 (SK-MEL-28 melanoma) [µM] | TGI (SR leukemia) [µM] | GI50 (SR leukemia) [µM]
COc1ccc(C2c3cc4c(cc3OC(O)(CO)C2C(=O)O)OCO4)c(OC)c1OC (centres undefined) (tested in a mixture with another compound) | > 100 | > 100 | > 100 | > 100 | > 100 | > 100 |  |  |  |  |  |  |  |  |  |  |  |  |  | 
O=C(/C=C/C12c3ccccc3C(c3ccccc31)C1C(=O)NC(=O)C12)c1ccco1 (centres undefined) | 5.43 | 3.98 | 12.5 | 4.83 | 4.21 | 4.73 | 2.14 | 1.8 | 2.19 | 3.43 | 20.3 | 3.85 | 15.4 | 3.03 | 9.85 | 2.22 | 1.1 | 2.37 |  | 
O[C@H]1[C@H]2[C@H](O)CCCN2C[C@H]1O | > 100 | > 100 |  | > 100 | > 100 | > 100 |  |  |  |  |  |  |  |  | > 100 |  |  |  |  | 
C/C=C/CP(=O)(c1ccccc1)c1ccccc1 | > 100 | > 100 | > 100 | > 100 | > 100 | > 100 |  |  |  |  |  |  |  |  | > 100 |  |  |  | > 100 | 
N#Cc1c(N)nc(N2CCOCC2)c(C#N)c1-c1cccc(O)c1 | > 100 | > 100 | > 100 | > 100 | > 100 | > 100 | 67 | 93.2 | > 100 | 42.7 | > 100 | 71.2 | > 100 | > 100 | > 100 | 54.8 | 48.7 | > 100 |  | 
Cc1ccc(-c2nc3nc(-c4ccc(Cl)cc4)nc(N4CCCNCC4)c3o2)cc1 | 3.08 | 3.76 |  | 3.41 | 4.74 | 3.13 | 1.57 | 1.93 |  | 1.94 | 4.14 | 1.83 | 3.37 | 1.78 | 3.87 | 1.83 | 2.11 | 1.73 |  | 
NC1=NN(c2ccccc2)C(=O)C1C(=O)C(=O)Nc1cccc(C(F)(F)F)c1 (centres undefined) | > 100 | > 100 | > 100 | > 100 | > 100 |  |  |  |  |  |  |  |  |  | > 100 |  |  |  |  | 
C/C(=N\[N+](C)(C)C)C(c1ccccc1)C1(c2ccccc2)C(c2ccccc2)=C1c1ccccc1 (centres undefined) | > 100 | > 100 | > 100 | > 100 | > 100 |  |  |  |  |  |  |  |  |  | 93.4 |  |  |  |  | 
C/C=C/C/C=C/CCC(=O)C1OC1C(N)=O (centres undefined) | 25.9 | 25.4 | 36.8 | 28.2 |  | 30.6 |  |  |  |  |  |  | 31.1 |  |  |  |  |  | 50.5 | 
COc1cc(C(=O)O)ccc1NC(=O)[C@@H]1N[C@@H](CC(C)(C)C)[C@](C#N)(c2ccc(Cl)cc2F)[C@H]1c1cccc(Cl)c1F | 10.1 | 2.27 | > 100 | 19.5 | > 22.9 | 7.59 | 2.93 | 0.077 | 4.15 | 5.23 | 43.7 | 6.58 | > 100 | 0.0941 | 1.71 | 5.47 | 2.51 | 2.56 |  | 
Fc1ccc(Nc2ccc3cc(OCCCN4CCOCC4)ccc3n2)cc1F | 10.4 | 8.74 | > 100 | > 100 | > 100 | 3.93 | 2.55 | 2.93 | 2.78 | 6.68 | > 100 | 1.96 | 4.68 |  |  | 3.93 | 6.96 | 1.87 | 32.8 | 2.03
CC1(C)CC2=NOS3=C2C(=NO3)C1c1ccccn1 (centres undefined) | > 100 | > 100 | 62.8 | > 100 | > 100 | > 100 |  |  |  |  | > 100 |  | > 100 |  |  |  |  |  | 81 | 
CC(=O)[CH-]C(C)=O.CC(=O)[CH-]C(C)=O.CC(=O)[CH-]C(C)=O.[Cl-].[Hf+4] | > 100 | > 100 | > 100 | > 100 | > 100 | > 100 | > 100 | > 100 | > 100 |  |  |  |  | > 100 | > 100 | > 100 | > 100 | > 100 | > 100 | > 100
CC1CC(C)C(=O)C(C(=O)CC2CC(=O)NC2=O)C1 (centres undefined) |  | > 100 | > 100 | > 100 | > 100 | > 100 |  |  |  |  |  |  |  |  | > 100 |  |  |  | > 100 | 
N#Cc1c(SCc2ccccc2)nc2[nH]c(=S)[nH]c(=S)c2c1-c1ccco1 | > 100 | > 100 | > 100 | > 100 | 13.9 | > 100 | 27.6 | 32.3 | 24.3 |  |  | 39.9 | 71.3 | 15.1 | 52.8 | 28 | 2.22 | > 100 | > 100 | 19.1
O=C(Nc1ccc(N=Nc2ccccc2)cc1)Sc1ccccc1C(=O)O | > 100 | > 100 | > 100 | > 100 | > 100 | > 100 |  |  |  |  |  |  |  |  | > 100 |  |  |  | > 100 | 
O=C1C(Br)=C(c2ccccc2)C(c2ccccc2)=C1c1ccccc1 | 4.03 | 18 | 9.93 | 10.5 | 5.22 | 6.75 |  |  |  |  |  |  | 6.05 |  | 21.8 |  |  |  | 3.78 | 
COc1cc2c(cc1OCCCCCN1CCN(c3cc(=O)oc4c(C)c(OC)ccc34)CC1)N=C[C@@H]1CCCN1C2=O | 4.42 | 1.71 | 0.316 | 0.137 | < 0.0118 | 0.163 | 0.552 | 0.0197 | < 0.01 | < 0.0174 |  |  |  | < 0.01 | 0.0368 | < 0.0122 | < 0.01 | < 0.0235 |  | 

Source: PubChem BioAssay (NCI)
